Structures are written as SMILES. Where two headings read alike, the source gives them in different places.

As usually defined, the EC50 is the concentration giving half of the maximal effect. A high value points to a need for much substance. For orientation: CC50 means the concentration at which the toxic effect on the cells reaches its halfway point. High values mean lower toxicity to the cells, low ones greater toxicity to the cells.

One series relates to HIV-1 (IIIB strain). In kind it is cell-based. Conditions: for EC50: anti-HIV-1 activity. The essentials: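 MT-4 cells (1×10^4/well) were infected with 100 CCID50 HIV-1 IIIB in presence of compound and incubated 4 days at 37 °C. Protection from virus-induced cytopathicity was scored by MTT viability, with cytotoxicity measured in parallel on mock-infected cells.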
The next series has as its system mock-infected MT-4 cells. Description: Cytotoxicity: viability of mock-infected cells by the MTT method. It is filed as cell-based, human. The essentials: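 Mock-infected MT-4 cells (1×10^4 per well) in RPMI 1640 with 10% FCS exposed to various compound concentrations for 4 days at 37° C, 5% CO2, in parallel with the antiviral assay. Viable cells counted by MTT method.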

Another series deals with HIV-1. Conditions: MT-4 cells infected with very high virus load; p24 ELISA of cell-free supernatants at 4 day intervals for 4 weeks.
Setting [1] is: acutely infected MT-4 cells, MTT.

On to `CCN(CC)c1nc(Cc2c(F)cccc2F)cc(=O)[nH]1` [MC 1202], for which, in the series with HIV-1 (IIIB strain) (setting [1]), the EC50 is 260 nM. In the series on mock-infected MT-4 cells (MTT), the CC50 was above 200000 nM.
In the same order, the values of `Cc1c(Cc2c(F)cccc2F)nc(N2CCN(C)CC2)[nH]c1=O` [MC 1203] are 360 nM and above 200000 nM.
The compound `CCCN(CCC)c1nc(Cc2c(F)cccc2F)cc(=O)[nH]1` [MC 1204] registered an EC50 in the series with HIV-1 (IIIB strain) (setting [1]) of 3800 nM. Moreover, the CC50 with mock-infected MT-4 cells (MTT) is above 200000 nM.
On the same counts, the results for `Cc1c(Cc2c(F)cccc2F)nc(N2CCOCC2)[nH]c1=O` [MC 1205] are 47 nM and above 200000 nM.
On the same counts, the results for `Cc1c(Cc2c(F)cccc2F)nc(N2CCSCC2)[nH]c1=O` [MC 1206] are 90 nM and above 200000 nM.
With `Cc1c(C(C)c2c(F)cccc2F)nc(N(C)C)[nH]c1=O` (stereo not shown) [MC 1220], the “concentration able to maintain a sustained reduction of p24 in the culture supernatants” value in the series on HIV-1 came out at 3.5 µM.
In the series on HIV-1 (IIIB strain) (HIV-1-infected MT-4 cells), `Cc1c(C(C)c2c(F)cccc2F)nc(SC2CCCC2)[nH]c1=O` (stereo not shown) [MC-1047, 2-Cyclopentylthio-6-{1-(2,6-difluorophenyl)ethyl}-3,4-dihydro-5-methylpyrimidin-4(3H)-one] showed an EC50 of 9 nM. Moreover, in the series with HIV-1 (IIIB strain) (selectivity index (CC50/EC50)), the SI was >22,222. The compound also returned a CC50 in the series on mock-infected MT-4 cells above 200000 nM. Also, the “concentration able to maintain a sustained reduction of p24 in the culture supernatants” value in the series on HIV-1 stood at 10 µM.
Take `Cc1ccnc2c1NC(=O)c1cccnc1N2C1CC1` [Nevirapine, 11-cyclopropyl-5,11-dihydro-4-methyl-6H-dipyridol{3,2-b:2′,3′-e}diazepin-6-one, reference compound]: in the series on HIV-1, the “concentration able to maintain a sustained reduction of p24 in the culture supernatants” value worked out at 300 µM.

Values taken from patent US6545007B2, “Methods for inhibiting the transmission of HIV using topically applied substituted 6-benzyl-4-oxopyrimidines” (Idenix (Cayman) Limited, priority 2000, dated 2003).
